Measured values from patent US4535081A, “Antiallergic and antiulcer 1-oxo-1H-thiazolo[3,2-a]pyrimidine-2-carboxamides and intermediates therefor” (Pfizer Inc., priority 1983, dated 1985).
Like-named read-outs stand apart in the source and are kept apart here.

Assays:
[1] = tested on: IgE (reaginic antiserum) PCA reaction; assay: Oral activity in PCA test, IgE; format: in vivo, rat; details: Rattus norvegicus, IgE, oral
Protocol: (§1) The antiallergy property of the compounds of this invention is evaluated by the passive cutaneous anaphylaxis (PCA) test (Ovary, J. Immun., 81, 355, 1958). In the PCA test, normal animals are injected intradermally (i.d.) with antibodies contained in serum obtained from actively sensitized animals. The animals are then challenged intravenously with antigen mixed with a dye such as Evans' Blue. The increased capillary permeability caused by the antigen-antibody reaction causes the dye to leak from the site of the antibody injection. The test animals are then asphyxiated and the intensity of the reaction determined by measuring the diameter and intensity of the blue coloration on the inner surface of the animals' skin.
The PCA test is a measure of the anti-allergic (especially anti-asthmatic) activity of a compound. Compounds which inhibit a positive PCA test induced by the rat immunochemical counterpart of human immunoglobulin E (IgE), or reagin, are considered to have anti-allergic activity (C. Mota, Ann. N.Y. Acad. Sci., 103, 264 1963). (Reagin is primarily immunoglobulin E [IgE] and is the principal immunoglobulin responsible for allergic asthma, anaphylaxis, hay fever, food sensitivities and certain manifestations of drug sensitivities, although recent evidence ascribes to the IgG class of antibodies a significant role in the mediation of allergic diseases). Such compounds when administered to a sensitized subject, human or animal, prior to the time when the subject comes into contact with antigens or substances to which it is allergic, will prevent the allergic reaction which would otherwise occur. They, therefore, provide a method for the prophylactic treatment of allergy or anaphylactic reactions of a reagin mediated nature.
To put it another way, such compounds block the release of mediators resulting from the antigen-antibody (allergic) reaction as illustrated in the PCA test using rat homocytotropic antibody--a known correlate of human reaginic antibody. Inhibition of reaginic antigen-antibody reactions in rats, the test animal of the PCA test, is regarded as representative of inhibition of human reaginic antigen-antibody reactions which occur during allergic episodes.
The ability of agents to interfere with PCA reactions is measured in male Charles River Wistar rats, 170-210 g. Reaginic antiserum, rich in IgE antibodies, is prepared according to Petillo et al., Int. Arch. Allergy, 44, 309 (1973). Hyperimmune antiserum rich in IgG antibodies to hen egg albumin is prepared according to Orange et al., J. Exptl. Med., 127, 767 (1968). Forty-eight hours prior to antigen challenge, the reaginic antiserum is injected intradermally (i.d.) into the shaved skin of a normal rat's back; 5 hours before challenge the hyperimmune antisera is similarly injected. At a third site 60 mcg. histamine dihydrochloride and 0.5 mcg. serotonin creatinine sulfate are injected i.d. just prior to antigen challenge as a check for antihistaminic, antiserotonin and unspecific types of blockage; the compounds of the instant invention or saline are then administered i.v. and immediately followed by the challenge of 5 mg. egg albumen and 2.5 mg. Evans' Blue dye in saline. In the case of oral administration Evans' Blue dye and egg albumin are given 5 minutes after administration of the drug. Thirty minutes later the animals are asphyxiated using chloroform and the skin of the back removed and reversed for observation. A score is assigned each injection site equal to the product of the diameter of the site in mm. and a grade of 0.1, 0.5, 1, 2, 3 or 4 proportional to intensity of dye coloration. The scores for a given injection site are summed for each group of five animals and compared to the saline treated controls. The difference is expressed as percent blockage due to the compound employed. […]

[2] = tested on: IgG (hyperimmune antiserum) PCA reaction; assay: Oral activity in PCA test, IgG; format: in vivo; details: Rattus norvegicus
Protocol: as §1
The ability of agents to interfere with PCA reactions is measured in male Charles River Wistar rats, 170-210 g. Reaginic antiserum, rich in IgE antibodies, is prepared according to Petillo et al., Int. Arch. Allergy, 44, 309 (1973). Hyperimmune antiserum rich in IgG antibodies to hen egg albumin is prepared according to Orange et al., J. Exptl. Med., 127, 767 (1968). Forty-eight hours prior to antigen challenge, the reaginic antiserum is injected intradermally (i.d.) into the shaved skin of a normal rat's back; 5 hours before challenge the hyperimmune antisera is similarly injected. At a third site 60 mcg. histamine dihydrochloride and 0.5 mcg. serotonin creatinine sulfate are injected i.d. just prior to antigen challenge as a check for antihistaminic, antiserotonin and unspecific types of blockage; the compounds of the instant invention or saline are then administered i.v. and immediately followed by the challenge of 5 mg. egg albumen and 2.5 mg. Evans' Blue dye in saline. In the case of oral administration Evans' Blue dye and egg albumin are given 5 minutes after administration of the drug. Thirty minutes later the animals are asphyxiated using chloroform and the skin of the back removed and reversed for observation. A score is assigned each injection site equal to the product of the diameter of the site in mm. and a grade of 0.1, 0.5, 1, 2, 3 or 4 proportional to intensity of dye coloration. The scores for a given injection site are summed for each group of five animals and compared to the saline treated controls. The difference is expressed as percent blockage due to the compound employed.
Compounds representative of those of the present invention are tested for antiallergy activity by the above-described procedure and the resulting activities are reported as the degree (%) of protection.

[3] = Table II acids, read-out: Oral Activity (% of Protection) of Acids in the PCA Test, IgE
[4] = Table II acids, read-out: Oral Activity (% of Protection) of Acids in the PCA Test, IgG
[5] = Table I amides, read-out: Oral Activity (% of Protection) in the PCA Test, IgE
[6] = Table I amides, read-out: Oral Activity (% of Protection) in the PCA Test, IgG

SMILES	inhibition in vivo at 30 mg/kg [1, 3] [%]	inhibition in vivo at 30 mg/kg [2, 4] [%]	inhibition in vivo at 30 mg/kg [1, 5] [%]	inhibition in vivo at 30 mg/kg [2, 6] [%]	also measured
CCC(C)c1csc2ncc(C(=O)O)c(=O)n12 (centres unmarked) [1-Oxo-1H-7-(2-butyl)thiazolo[3,2-a]pyrimidine-2-carboxylic Acid]	1	8			
O=C(Nc1nnn[nH]1)c1cnc2sc3c(n2c1=O)CCC3 [Formula I: (CH2)3, N-(5-Tetrazolyl)-1-oxo-1H-cyclopentenothiazolo[3,2-a]pyrimidine-2-carboxamide]					inhibition in vivo at 1 mg/kg ([1]; 1 mg./kg., read-out: Oral Activity (% of Protection) in the PCA Test, IgE): 46%; inhibition in vivo at 1 mg/kg ([2]; 1 mg./kg., read-out: Oral Activity (% of Protection) in the PCA Test, IgG): 43%
O=C(Nc1nnn[nH]1)c1cnc2sc3c(n2c1=O)CCCCC3 [Formula I: (CH2)5, N-(5-Tetrazolyl)-1-oxo-1H cycloheptenothiazolo[3,2-a]pyrimidine-2-carboxamide]			25	38	
CCc1sc2ncc(C(=O)Nc3nnn[nH]3)c(=O)n2c1C [Formula I: R1=C2H5, R2=CH3, N-(5-Tetrazolyl)-1-oxo-1H-6-ethyl-7-methylthiazolo[3,2-a]pyrimidine-2-carboxamide]			29	28	
CCc1c(C)sc2ncc(C(=O)Nc3nnn[nH]3)c(=O)n12 [Formula I: R1=CH3, R2=C2H5, N-(5-Tetrazolyl)-1-oxo-1H-6-methyl-7-ethylthiazolo[3,2-a]pyrimidine-2-carboxamide]			75	57	
CCc1csc2ncc(C(=O)Nc3nnn[nH]3)c(=O)n12 [Formula I: R1=H, R2=C2H5, N-(5-Tetrazolyl)-1-oxo-1H-7-ethylthiazolo[3,2-a]pyrimidine-2-carboxamide]			70	44	
CC(C)(C)c1csc2ncc(C(=O)Nc3nnn[nH]3)c(=O)n12 [Formula I: R1=H, R2=C(CH3)3, N-(5-Tetrazolyl)-1-oxo-1H-7-(2-methyl-2-propyl)thiazolo[3,2-a]pyrimidine-2-carboxamide]			37	20	
CC(C)c1csc2ncc(C(=O)Nc3nnn[nH]3)c(=O)n12 [Formula I: R1=H, R2=CH(CH3)2, N-(5-Tetrazolyl)-1-oxo-1H-7-isopropylthiazolo[3,2-a]pyrimidine-2-carboxamide]			72	53	
O=C(Nc1nnn[nH]1)c1cnc2sccn2c1=O [Formula I: R1=H, R2=H]			50	46	
O=C(O)c1cnc2sc3c(n2c1=O)CCC3 [Formula II: (CH2)3, 1-Oxo-1H-cyclopentenothiazolo[3,2-a]pyrimidine-2-carboxylic Acid]	0	0			
O=C(O)c1cnc2sc3c(n2c1=O)CCCCC3 [Formula II: (CH2)5, 1-Oxo-1H-cycloheptenothiazolo[3,2-a]pyrimidine-2-carboxylic Acid]	37	44			
O=C(O)c1cnc2sc3c(n2c1=O)CCCCCC3 [Formula II: (CH2)6, 1-Oxo-1H-cyclooctenothiazolo[3,2-a]pyrimidine-2-carboxylic Acid]	68	45			inhibition in vivo at 10 mg/kg ([1]; 10 mg./kg., Table II acids, read-out: Oral Activity (% of Protection) of Acids in the PCA Test, IgE): 36%; inhibition in vivo at 10 mg/kg ([2]; 10 mg./kg., Table II acids, read-out: Oral Activity (% of Protection) of Acids in the PCA Test, IgG): 15%
CC1(C)CCc2c(sc3ncc(C(=O)O)c(=O)n23)C1 [Formula II: CH2C(CH3)2CH2CH2, 1-Oxo-1H-7,7-dimethylcyclohexenothiazolo[3,2-a]pyrimidine-2-carboxylic Acid]	13	6			
O=C(O)c1cnc2sc3c(n2c1=O)CCC(c1ccccc1)C3 (centres unmarked) [Formula II: CH2CH(C5H6)CH2CH2, 1-oxo-1H-7-phenylcyclohexenothiazolo[3,2-a]pyrimidine-2-carboxylic Acid]	15	5			
CC1CCc2c(sc3ncc(C(=O)O)c(=O)n23)C1 (centres unmarked) [Formula II: CH2CH(CH3)CH2CH2, 1-Oxo-1H-7-methylcyclohexenothiazolo[3,2-a]pyrimidine-2-carboxylic Acid]	31	21			
CCc1sc2ncc(C(=O)O)c(=O)n2c1C [Formula II: R1=C2H5, R2=CH3, 1-Oxo-1H-6-ethyl-7-methylthiazolo[3,2-a]pyrimidine-2-carboxylic Acid]	42	24			
CCc1c(C)sc2ncc(C(=O)O)c(=O)n12 [Formula II: R1=CH3, R2=C2H5, 1-Oxo-1H-6-methyl-7-ethylthiazolo[3,2-a]pyrimidine-2-carboxylic Acid]	0	0			
CCc1csc2ncc(C(=O)O)c(=O)n12 [Formula II: R1=H, R2=C2H5, 1-Oxo-1H-7-ethylthiazolo[3,2-a]pyrimidine-2-carboxylic Acid]	13	21			
CC(C)(C)c1csc2ncc(C(=O)O)c(=O)n12 [Formula II: R1=H, R2=C(CH3)3, 1-Oxo-1H-7-(2-methyl-2-propyl)thiazolo[3,2-a]pyrimidine-2-carboxylic Acid]	10	6			
CC(C)c1csc2ncc(C(=O)O)c(=O)n12 [Formula II: R1=H, R2=CH(CH3)2, 1-Oxo-1H-7-isopropylthiazolo[3,2-a]pyrimidine-2-carboxylic Acid]	0	0			
O=C(O)c1cnc2sccn2c1=O [Formula II: R1=H, R2=H]	18	7			
